From patent US6514692B2, “Method for treatment of immunodeficiency virus infection” (priority 1996, dated 2003)
Values joined by “and” are separate entries in the source; they are usually repeats but may differ in a detail not shown here. Equal entries are not always repeated. Where two headings read alike, the source gives them in different places. Where no end group is shown, it is not given here.

Experiments:
SK1 isolate of HIV-1 = test system: SK1 isolate of HIV-1
Description: (§1) ME180 cells, a cervical epithelial cell line, were obtained from the American Type Culture Collection. These cells were thawed from liquid nitrogen and grown in RPMI 1640 medium supplemented with 10t fetal bovine serum, glutamine and antibiotics. The cells were adherent and were trypsinized (0.5% trypsin in HBSS) to remove them from the flask for passaging and use in assays. For use in the microtiter transmission inhibition assay, ME180 cells were trypsinized, washed and seeded in 96-well flat bottom microtiter plates (COSTAR) at a density of 5×10^3 cells per well. The cells were incubated at 37° C. for 24 hours prior to the tart of the assay. H9 cells chronically infected with he SK1 isolate of HIV-1 were treated with 200 μg/ml mitomycin C for 60 minutes at 37° C. After treatment the cells were washed three times with tissue culture medium. The chronically infected lymphocytes were added to each well at a density of 2×10^4 cells per well. The concentration of mitomycin C used in the treatment of the lymphocytes was chosen to allow lymphocyte survival for the period of time required to transmit virus to the uninfected ME180 cells, but to die prior to the time of assay so as not to contribute to the p24 signal used as the endpoint (see below). In the transmission assay the lytic peptides D4E1 and D2A21, with and without 150 μg/ml pig mucin, were added prior to the addition of chronically infected cells or were mixed with the chronically infected cells prior to their addition to the monolayer of ME180 cells. Mucin was included because it is an abundant constituent of the normal vaginal secretions of a human being, thus any chemotherapeutic agent targeting HIV should be active in its presence if it is to have clinical value. […] The lymphocytes and peptide were co-cultured with the ME180 cells for 6 hours and then removed by washing the ME180 monolayer four times with PBS. The plate was then incubated at 37° C. for six days. Medium was removed and changed every 48 hours during the incubation stage. No further peptide was added after the initial dose. At six days post-co-cultivation, the supernatant was removed from the wells and evaluated for the quantity of p24 antigen by ELISA. The ELISA was performed according to the manufacturer's recommendations. The amount of virus production in wells treated with various concentrations of the peptides was evaluated with appropriate cell and virus controls. Data are reported as a percent of virus control at each drug concentration. Linear regression analysis was used to calculate the […] and IC95 concentrations of the transmission inhibitor. […] TI represents the toxicity index, which is the ratio of the TC50/IC50, and is an indication of the relative concentrations window that exists between efficacy and toxicity.

ME180 cells = assay: toxicity (XTT) in transmission inhibition assay; conditions: for TOXICITY VALUES (XTT), single samples: samples 1-3; for TC50 (concentration at which 50% of cells are eliminated): interpolation from % CC
Description: as §1

[1] = toxicity (XTT) in transmission inhibition assay; conditions: human, ME180 cells
Description: as §1

[2] = 0.32 μg/ml, with 150 μg/ml pig mucin
[3] = 1 μg/ml, with 150 μg/ml pig mucin
[4] = 3.2 μg/ml, with 150 μg/ml pig mucin
[5] = 10 μg/ml, with 150 μg/ml pig mucin
[6] = 32 μg/ml, with 150 μg/ml pig mucin
[7] = 100 μg/ml, with 150 μg/ml pig mucin

FAKKFAKKFKKFAKKFAKFAFAF [D2A21]
% VC (p24, percent of virus control) (SK1 isolate of HIV-1; 0.32 μg/ml, no mucin): 81.8%
% VC (p24, percent of virus control) (SK1 isolate of HIV-1; [2]): 33.7%
% VC (p24, percent of virus control) (SK1 isolate of HIV-1; 1 μg/ml, no mucin): 67.3%
% VC (p24, percent of virus control) (SK1 isolate of HIV-1; [3]): 27.7%
% VC (p24, percent of virus control) (SK1 isolate of HIV-1; 3.2 μg/ml, no mucin): 40.6%
% VC (p24, percent of virus control) (SK1 isolate of HIV-1; [4]): 18.8%
% VC (p24, percent of virus control) (SK1 isolate of HIV-1; 10 μg/ml, no mucin): 27.4%
% VC (p24, percent of virus control) (SK1 isolate of HIV-1; [5]): 10.1%
% VC (p24, percent of virus control) (SK1 isolate of HIV-1; 32 μg/ml, no mucin): 2.2%
% VC (p24, percent of virus control) (SK1 isolate of HIV-1; [6]): 0.0%
% VC (p24, percent of virus control) (SK1 isolate of HIV-1; 100 μg/ml, no mucin): 0.0%
TI (toxicity index, TC50/IC50) (SK1 isolate of HIV-1; no mucin): TI = 15
TI (toxicity index, TC50/IC50) (SK1 isolate of HIV-1; with 150 μg/ml pig mucin): TI = 139
TOXICITY VALUES (XTT), MEAN (ME180 cells; 0.32 μg/ml, no mucin): 0.515 O.D. @ 450/650 nm
TOXICITY VALUES (XTT), single samples (ME180 cells; 0.32 μg/ml, no mucin): 0.541 O.D. @ 450/650 nm and 0.497 O.D. @ 450/650 nm and 0.506 O.D. @ 450/650 nm
% CC (XTT, percent of cell control) (ME180 cells; [2]): 97.6%
TOXICITY VALUES (XTT), MEAN (ME180 cells; [2]): 0.515 O.D. @ 450/650 nm
TOXICITY VALUES (XTT), single samples (ME180 cells; [2]): 0.541 O.D. @ 450/650 nm and 0.497 O.D. @ 450/650 nm and 0.506 O.D. @ 450/650 nm
TOXICITY VALUES (XTT), MEAN (ME180 cells; 1 μg/ml, no mucin): 0.528 O.D. @ 450/650 nm
TOXICITY VALUES (XTT), single samples (ME180 cells; 1 μg/ml, no mucin): 0.550 O.D. @ 450/650 nm and 0.514 O.D. @ 450/650 nm and 0.520 O.D. @ 450/650 nm
% CC (XTT, percent of cell control) (ME180 cells; [3]): 100.1%
TOXICITY VALUES (XTT), MEAN (ME180 cells; [3]): 0.528 O.D. @ 450/650 nm
TOXICITY VALUES (XTT), single samples (ME180 cells; [3]): 0.550 O.D. @ 450/650 nm and 0.514 O.D. @ 450/650 nm and 0.520 O.D. @ 450/650 nm
TOXICITY VALUES (XTT), MEAN (ME180 cells; 3.2 μg/ml, no mucin): 0.515 O.D. @ 450/650 nm
TOXICITY VALUES (XTT), single samples (ME180 cells; 3.2 μg/ml, no mucin): 0.525 O.D. @ 450/650 nm and 0.513 O.D. @ 450/650 nm and 0.506 O.D. @ 450/650 nm
% CC (XTT, percent of cell control) (ME180 cells; [4]): 97.6%
TOXICITY VALUES (XTT), MEAN (ME180 cells; [4]): 0.515 O.D. @ 450/650 nm
TOXICITY VALUES (XTT), single samples (ME180 cells; [4]): 0.525 O.D. @ 450/650 nm and 0.513 O.D. @ 450/650 nm and 0.506 O.D. @ 450/650 nm
TOXICITY VALUES (XTT), MEAN (ME180 cells; 10 μg/ml, no mucin): 0.506 O.D. @ 450/650 nm
TOXICITY VALUES (XTT), single samples (ME180 cells; 10 μg/ml, no mucin): 0.518 O.D. @ 450/650 nm and 0.506 O.D. @ 450/650 nm and 0.491 O.D. @ 450/650 nm
% CC (XTT, percent of cell control) (ME180 cells; [5]): 95.9%
TOXICITY VALUES (XTT), MEAN (ME180 cells; [5]): 0.506 O.D. @ 450/650 nm
TOXICITY VALUES (XTT), single samples (ME180 cells; [5]): 0.518 O.D. @ 450/650 nm and 0.508 O.D. @ 450/650 nm and 0.491 O.D. @ 450/650 nm
TOXICITY VALUES (XTT), MEAN (ME180 cells; 32 μg/ml, no mucin): 0.322 O.D. @ 450/650 nm
TOXICITY VALUES (XTT), single samples (ME180 cells; 32 μg/ml, no mucin): 0.342 O.D. @ 450/650 nm and 0.315 O.D. @ 450/650 nm and 0.308 O.D. @ 450/650 nm
% CC (XTT, percent of cell control) (ME180 cells; [6]): 61.04%
TOXICITY VALUES (XTT), MEAN (ME180 cells; [6]): 0.322 O.D. @ 450/650 nm
TOXICITY VALUES (XTT), single samples (ME180 cells; [6]): 0.342 O.D. @ 450/650 nm and 0.315 O.D. @ 450/650 nm and 0.308 O.D. @ 450/650 nm
TOXICITY VALUES (XTT), MEAN (ME180 cells; 100 μg/ml, no mucin): 0.087 O.D. @ 450/650 nm
TOXICITY VALUES (XTT), single samples (ME180 cells; 100 μg/ml, no mucin): 0.061 O.D. @ 450/650 nm and 0.083 O.D. @ 450/650 nm and 0.096 O.D. @ 450/650 nm
% CC (XTT, percent of cell control) (ME180 cells; [7]): 16.4%
TOXICITY VALUES (XTT), MEAN (ME180 cells; [7]): 0.087 O.D. @ 450/650 nm
TOXICITY VALUES (XTT), single samples (ME180 cells; [7]): 0.081 O.D. @ 450/650 nm and 0.083 O.D. @ 450/650 nm and 0.096 O.D. @ 450/650 nm
TC50 (concentration at which 50% of cells are eliminated) (ME180 cells; no mucin): TC50 = 39 μg/ml
TC50 (concentration at which 50% of cells are eliminated) (ME180 cells; with 150 μg/ml pig mucin): TC50 39 μg/ml
viability at 6 h, 0.32 µg/mL [1]: 97.6%
viability at 6 h, 1 µg/mL [1]: 100%
viability at 6 h, 3.2 µg/mL [1]: 97.6%
viability at 6 h, 10 µg/mL [1]: 95.9%
viability at 6 h, 32 µg/mL [1]: 61%
viability at 6 h, 100 µg/mL [1]: 16.4%
